Earlier results, collected in paper PMC5763161 (Molecular Therapy, 2017).

Test system: dystrophin exon skipping
Settings: mdx mice

ASSLNIA
delivery or exon-skipping levels when conjugated to a PMO: unable to increase
